Laboratory results as given in US20110183942A1, “Methods and Compositions for Treating Alzheimer's Disease” (UNIVERSITY OF MEDICINE AND DENTISTRY OF NEW JERSEY, priority 2008, published 2011).

Tested on: surface AMPA receptor (GluR2/3, GluR1) in cultured neurons
Assay: Surface biotinylation assay of AMPA receptor subunits
Format: cell-based, mouse
Details: DHPG 5 min
Protocol: For surface biotinylation, drug-treated cortical neurons were cooled on ice, washed twice with ice-cold PBS++ (1× PBS, 1 mM CaCl2, 0.5 mM MgCl2) and then incubated with PBS++ containing 1 mg/ml Sulfo-NHS-SSBiotin (Pierce) for 30 min at 4° C. Unreacted biotin was quenched by washing cells three times with PBS++ containing 100 mM Glycine (pH 7.4) (briefly once and for 5 min twice). Cultures were harvested in RIPA buffer and sonicated. Homogenates were centrifuged at […] for 20 min at 4° C. Fifteen % of supernatant was saved as the total protein. […] Precipitates were washed with RIPA buffer three times (5 min each time). All procedures were done at 4° C.

NC(C(=O)O)c1cc(O)cc(O)c1 (racemic) [DHPG, (R,S)-3,5-DHPG]
reduction of ratio of surface to total GluR2/3 (WT neurons): ~30%
reduction of ratio of surface to total GluR2/3 (eEF2K KO neurons): did not significantly reduce
